From publication PMC11362529, “Exploring the neuroprotective potential of Nrf2-pathway activators against annonacin toxicity” (Scientific Reports, 2024)

Legend:
Format in all cases: cell-based, human
[1] = test system: LUHMES cells; test: Intracellular ATP levels (ViaLight plus kit); settings: for intracellular ATP levels: protective concentration of compound + 20 nM annonacin, 24 h
Protocol: Mitochondrial activity was estimated by the reduction of MTT (3-(4,5-dimethylthiazol-2-yl)-2,5-diphenyltetrazolium, Sigma-Aldrich). Briefly, LUHMES cells were seeded on PLO/FN-coated 48-well microplates, in triplicates. After a 24 h treatment with 20 nM of annonacin and the protective concentrations of Nrf2-pathway activators in glucose-reduced medium, cells were incubated with 0.5 mg/ml of MTT dissolved in PBS, at 37 °C for 30 min. After that, the medium was removed and the plate was frozen at -80 °C for 1 h, for cell lysing. Next, the plate was thawed and the MTT crystals were completely dissolved in 250 µl of DMSO with vigorous shaking. The absorbance was measured on a FLUOstar® Omega plate reader at λ = 590 nm, using λ = 630 nm absorbance as a background correction. The obtained results were analyzed with the MARS data analysis software (BMG LabTech). After background subtraction, the data were expressed as a percentage of MTT reduction relative to the control (DMSO-treated) condition. Determination of cellular ATP levels was done by using the ViaLight™ plus kit (Lonza, Basel, Switzerland), following the manufacturer’s instructions. Cells were seeded on PLO/FN-coated 48-well microplates and the pharmacological treatments were done similarly as to the assessment of the MTT reduction. On the next day, the medium was removed and cells were washed once with warm HBSS and rested in 210 µl HBSS. The plate was left to reach RT before adding 70 µl cell lysis reagent to each well, provided by the kit. After a 10 min incubation, 10 µl of each lysed cell extract was transferred to a 384-well white plate and combined with 10 µl of ATP monitoring reagent plus. The plate was incubated in the dark for 10 min at RT before the luminescence signal was measured on a FLUOstar® Omega plate reader. The obtained results were analyzed with the MARS data analysis software (BMG LabTech) and expressed as RLUs. For background correction, the RLUs detected for the background control (i.e., 10 µl of ATP monitoring reagent plus combined with 10 µl of cell lysis reagent) were subtracted from the measured RLUs values of all testing conditions.

[2] = test system: NQO1; test: NQO1 mRNA by RT-qPCR; settings: 48 h
Protocol: LUHMES cells were seeded on PLO/FN coated 6-well microplates and the pharmacological treatments were performed as previously explained. The cells were washed in HBSS, prior to being collected for mRNA isolation (RNeasy® Plus Mini Kit, Qiagen, Venlo, Netherlands), following the manufacturer’s instructions. The mRNA concentrations were determined on a Nano-Drop 2000c (Thermo Fisher Scientific) and 1 µg of mRNA was reverse-transcribed into cDNA with the iScript™ Reverse Transcription Supermix for RT-qPCR Kit (Bio-Rad) on a thermal cycler (SensoQuest, Göttingen, Germany). Real-time PCR was performed using SYBR™ Select Master Mix for CFX (Thermo Fisher Scientific) with 30 ng cDNA and 0.4 µM of primers against the respective target genes (Supplementary Table S3), in a 20 µl total volume, on a CFX96 Touch™ Real-Time Cycler (Bio-Rad). The relative expression of mRNA was calculated using the CFX Manager software (ΔΔCt method) from Bio-Rad, and the Ct values of the target-genes were normalized to the reference genes RPL22 and UBQLN1. The data were reported as fold change relative to the control (DMSO-treated) condition.

[3] = test system: pThr-181 tau; test: AT270 (pThr-181 tau) immunofluorescence; settings: 48 h
Protocol: (§1) For immunostaining, cells were seeded in differentiation medium, on 24-well microplates containing PLO/FN-coated 13 mm Ø coverslips, and treated for 48 h as previously described. On the readout day, the medium was removed and cells were fixed, permeabilized and blocked as before. Primary antibody dilutions were made in 1.5% NHS in PBS (Supplementary Table S1) and incubated overnight at 4 °C. On the following day, the coverslips were washed three times with PBS and incubated with host-specific fluorescence secondary antibodies (Supplementary Table S1), for 2 h at RT, protected from light. After another three washes with PBS, cell nuclei were stained with 1:5,000 DAPI (4’,6-diamidino-2-phenylindole, Thermo Fisher Scientific) in PBS, for 15 min at RT. The coverslips were mounted in mowiol and left to dry for 24 h before imaging. Image acquisition for FI quantification was done with a 200 × magnification (20 × objective, 10 × intermediate magnification), or 400x (40 × objective, 10 × intermediate magnification) in the case of pSC-35 and AT8 immunostaining, on a fluorescence microscope Leica-DFC9000GTC (Leica). In the case of phospho-tau AT8, Z-stacks consisting of 18 plane images with a step size of 1 μm were acquired. The image acquisition parameters were identical for all conditions. Quantification of 8-OHdG (8-hydroxyguanosine) FI and tau species was performed using the ImageJ software. Ten-to-fifteen images per condition across triplicates, from different view fields, were used for this purpose. Briefly, TIFF exported images were submitted to background subtraction using the rolling ball method with a radius of 50 pixels. For 8-OHdG analysis, a channel-specific threshold was applied to all images to define the ROI and FI was measured and normalized to the cell number, determined by the DAPI channel. The average value of the different view fields per experimental condition was taken and reported as fold change compared to the control (DMSO-treated) condition. For the analysis of phospho-tau AT270 and pan-tau reactivity, channel specific thresholds were applied to all images. The DAPI channel was used to define nuclei from viable cells, by selecting particles with a size above 15 µm^2 and a circularity of 0.3–1.0. The obtained mask was submitted to “close” and “fill holes” processes to smooth the objects and fill in small holes, followed by nine “dilations” and one “watershed” to obtain a ROI covering exclusively the soma of viable cells. The obtained mask was combined with threshold images of phospho-tau AT270 and pan-tau in order to define the respective ROI of each tau species. These masks were used to quantify the number of somas expressing each of these tau species, as well as the respective FI. The number of AT270-positive somas was divided by the number of pan-tau-positive somas and expressed as a percentage. The AT270 FI was normalized to the pan-tau FI and the ratio presented as fold change relative to the control (DMSO-treated) condition. For quantification of pSC-35 and AT8 speckle number and FI, we used CellProfiler™ 4 (https://cellprofiler.org/, Broad Institute Inc., Cambridge, MA, USA) speckle counting pipeline. Twenty-to-thirty images per condition across triplicates were used for this purpose. ImageJ BIOP JACoP plugin was used for estimating co-localization of AT8 with DAPI-stained nuclei. Data were reported as fold change compared to the control (DMSO-treated) condition, or as Pearsonʹs coefficient values in case the of AT8 co-localization data.

[4] = test system: 8-OHdG; test: Oxidative DNA damage marker 8-OHdG immunofluorescence; settings: 48 h; for 8-OHdG reactivity: protective concentration of compound + 20 nM annonacin
Protocol: For immunostaining, cells were seeded in differentiation medium, on 24-well microplates containing PLO/FN-coated 13 mm Ø coverslips, and treated for 48 h as previously described. On the readout day, the medium was removed and cells were fixed, permeabilized and blocked as before. Primary antibody dilutions were made in 1.5% NHS in PBS (Supplementary Table S1) and incubated overnight at 4 °C. On the following day, the coverslips were washed three times with PBS and incubated with host-specific fluorescence secondary antibodies (Supplementary Table S1), for 2 h at RT, protected from light. After another three washes with PBS, cell nuclei were stained with 1:5,000 DAPI (4’,6-diamidino-2-phenylindole, Thermo Fisher Scientific) in PBS, for 15 min at RT. The coverslips were mounted in mowiol and left to dry for 24 h before imaging. Image acquisition for FI quantification was done with a 200 × magnification (20 × objective, 10 × intermediate magnification), or 400x (40 × objective, 10 × intermediate magnification) in the case of pSC-35 and AT8 immunostaining, on a fluorescence microscope Leica-DFC9000GTC (Leica). In the case of phospho-tau AT8, Z-stacks consisting of 18 plane images with a step size of 1 μm were acquired. The image acquisition parameters were identical for all conditions. Quantification of 8-OHdG (8-hydroxyguanosine) FI and tau species was performed using the ImageJ software. Ten-to-fifteen images per condition across triplicates, from different view fields, were used for this purpose. Briefly, TIFF exported images were submitted to background subtraction using the rolling ball method with a radius of 50 pixels. For 8-OHdG analysis, a channel-specific threshold was applied to all images to define the ROI and FI was measured and normalized to the cell number, determined by the DAPI channel. The average value of the different view fields per experimental condition was taken and reported as fold change compared to the control (DMSO-treated) condition. For the analysis of phospho-tau AT270 and pan-tau reactivity, channel specific thresholds were applied to all images. The DAPI channel was used to define nuclei from viable cells, by selecting particles with a size above 15 µm^2 and a circularity of 0.3–1.0. […] These masks were used to quantify the number of somas expressing each of these tau species, as well as the respective FI. The number of AT270-positive somas was divided by the number of pan-tau-positive somas and expressed as a percentage. […] For quantification of pSC-35 and AT8 speckle number and FI, we used CellProfiler™ 4 (https://cellprofiler.org/, Broad Institute Inc., Cambridge, MA, USA) speckle counting pipeline. […]

[5] = test system: pSer-202 and pThr-205 tau; test: AT8 (pSer-202/Thr-205 tau) immunofluorescence; settings: 48 h
Protocol: as §1

[6] = 20 nM annonacin alone, vs control
[7] = protective concentration of compound + 20 nM annonacin, vs annonacin
[8] = protective concentration of compound + 20 nM annonacin
[9] = protective concentration of compound + 20 nM annonacin, compared to annonacin

| Structure (SMILES) | ATP production ([1]; annonacin alone) | NQO1 mRNA expression ([2]; 20 nM annonacin alone (DMSO control condition) vs DMSO control without annonacin) | AT270-positive somas ([3]; 20 nM annonacin alone) | AT270 reactivity normalized to pan-tau, in the soma area ([3]; 20 nM annonacin alone) [ratio] | pThr-181 tau (AT270) normalized to pan-tau, neuritic and somatic compartment ([3]; 20 nM annonacin alone) [ratio] | increase of 8-OHdG reactivity ([4]; 20 nM annonacin alone) [fold over control] | Pearson´s coefficient between AT8 reactivity and DAPI-stained nuclei (r) ([5]; 20 nM annonacin alone) | AT8 fluorescence intensity [5, 6] | number of AT8 speckles per nucleus [5, 6] | intracellular ATP levels [1] | NQO1 mRNA expression ([2]; absence of annonacin) | NQO1 mRNA expression ([2]; presence of 20 nM annonacin, vs DMSO control under annonacin) | AT270-positive somas ([3]; 15 μM ezetimibe + 20 nM annonacin) [%] | pThr-181 tau (AT270) normalized to pan-tau, neuritic and somatic compartment [3, 7] | 8-OHdG reactivity [4] | Pearson´s coefficient between AT8 reactivity and DAPI-stained nuclei (r) [5, 8] | AT8 fluorescence intensity [5, 9] | number of AT8 speckles [5, 9] |
| --- | --- | --- | --- | --- | --- | --- | --- | --- | --- | --- | --- | --- | --- | --- | --- | --- | --- | --- |
| CCCCCCCCCCCC[C@@H](O)[C@H]1CC[C@H]([C@H](O)CCCC[C@H](O)CCCCC[C@@H](O)CC2=CC(C)OC2=O)O1 (some centres unmarked) [annonacin] | impaired ATP production | downregulation of both target-genes | more than 90% | 1.9 | 3.4 | 1.5 | 0.58 | statistically higher AT8 fluorescence intensity | non-significant propensity to increase the number of AT8 speckles per nucleus | – | – | – | – | – | – | – | – | – |
| O=C1[C@H](CC[C@H](O)c2ccc(F)cc2)[C@@H](c2ccc(O)cc2)N1c1ccc(F)cc1 [ezetimibe] | – | – | – | – | – | – | – | – | – | lower intracellular ATP levels | did not induce significant changes | did not induce significant changes | 75 | attenuated annonacin-induced tau hyperphosphorylation | levels of oxidative DNA damage comparable to healthy control cells | 0.45 | significant reduction | significant reduction of the number of AT8 speckles |
| C=CC(C)(C)c1cc(/C=C/C(=O)c2ccc(O)cc2)c(OC)cc1O [licochalcone A] | – | – | – | – | – | – | – | – | – | lower intracellular ATP levels | 2.5 fold over DMSO control | – | – | attenuated annonacin-induced tau hyperphosphorylation | levels of oxidative DNA damage comparable to healthy control cells | 0.38 | significant reduction | significant reduction of the number of AT8 speckles |
| Cn1c(Nc2nc3ccc(C(F)(F)F)cc3s2)nc2cc(C(=O)NCCOCCO)ccc21 [HPP-D] | – | – | – | – | – | – | – | – | – | intracellular ATP levels no longer statistically different from healthy control cells | fivefold | – | – | attenuated annonacin-induced tau hyperphosphorylation | small but significant reduction of 8-OHdG reactivity | – | – | – |
